Where “and” joins values, the source holds several entries; their conditions need not be identical. Equal entries are not always repeated. Inconclusive results and toxic doses are left out. Cut-off read from the data, not from the text of the source: active = T/C of 150% or more; inactive = T/C below 125%.
Tested on: L1210 leukemia ip in BDF1 mice, survival T/C
Experiment: NCI In Vivo Anticancer Drug Screen. Data for tumor model L1210 Leukemia (intraperitoneal) in B6D2F1 (BDF1) mice
Conditions: endpoint: mean survival time, higher = longer survival
Summary of the method: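 Antitumor effect is assessed in tumor-bearing animals. Survival in the compound arm is compared with a vehicle-dosed control arm and expressed as their quotient.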

[1] = dose: 100.0 mg/kg/injection, schedule: Q01DX001 (ip), vehicle: saline
[2] = dose: 200.0 mg/kg/injection, schedule: Q01DX001 (ip), vehicle: saline
[3] = dose: 400.0 mg/kg/injection, schedule: Q01DX001 (ip), vehicle: saline
[4] = dose: 25.0 mg/kg/injection, schedule: Q04DX003 (ip), vehicle: saline
[5] = dose: 50.0 mg/kg/injection, schedule: Q01DX001 (ip), vehicle: saline
[6] = dose: 50.0 mg/kg/injection, schedule: Q04DX003 (ip), vehicle: saline
[7] = dose: 100.0 mg/kg/injection, schedule: Q04DX003 (ip), vehicle: saline
[8] = dose: 200.0 mg/kg/injection, schedule: Q04DX003 (ip), vehicle: saline
[9] = dose: 400.0 mg/kg/injection, schedule: Q04DX003 (ip), vehicle: saline
[10] = dose: 100.0 mg/kg/injection, schedule: Q01DX001 (ip), vehicle: Klucel (hydroxypropylcellulose) (HPC)
[11] = dose: 200.0 mg/kg/injection, schedule: Q01DX001 (ip), vehicle: Klucel (hydroxypropylcellulose) (HPC)
[12] = dose: 400.0 mg/kg/injection, schedule: Q01DX001 (ip), vehicle: Klucel (hydroxypropylcellulose) (HPC)
[13] = dose: 100.0 mg/kg/injection, schedule: Q01DX009 (ip), vehicle: Klucel (hydroxypropylcellulose) (HPC)
[14] = dose: 200.0 mg/kg/injection, schedule: Q01DX009 (ip), vehicle: Klucel (hydroxypropylcellulose) (HPC)
[15] = dose: 100.0 mg/kg/injection, schedule: Q04DX002 (ip), vehicle: saline
[16] = dose: 200.0 mg/kg/injection, schedule: Q04DX002 (ip), vehicle: saline
[17] = dose: 400.0 mg/kg/injection, schedule: Q04DX002 (ip), vehicle: saline
[18] = dose: 100.0 mg/kg/injection, schedule: Q01DX009 (ip), vehicle: saline with Tween-80
[19] = dose: 200.0 mg/kg/injection, schedule: Q01DX009 (ip), vehicle: saline with Tween-80

Measured: T/C

COC(=O)C(Nc1ccc([N+](=O)[O-])cc1[N+](=O)[O-])C(C)OS(=O)(=O)c1ccc(C)cc1 (configuration not stated)
inactive: [1] 95 % of control | [2] 93 % of control | [3] 92 % of control

c1ccc(-c2nc3ccccc3c3ccccc23)cc1
inactive: dose: 100.0 mg/kg/injection, schedule: Q04DX003 (ip), vehicle: Klucel (hydroxypropylcellulose) (HPC) 101 % of control | dose: 200.0 mg/kg/injection, schedule: Q04DX003 (ip), vehicle: Klucel (hydroxypropylcellulose) (HPC) 103 % of control | dose: 400.0 mg/kg/injection, schedule: Q04DX003 (ip), vehicle: Klucel (hydroxypropylcellulose) (HPC) 106 % of control

O=C(Nc1ccc(Nc2ccccc2)cc1)c1ccc(F)cc1
inactive: dose: 100.0 mg/kg/injection, schedule: Q01DX009 (ip), vehicle: gum acacia 91 % of control | dose: 200.0 mg/kg/injection, schedule: Q01DX009 (ip), vehicle: gum acacia 96 % of control | dose: 400.0 mg/kg/injection, schedule: Q01DX009 (ip), vehicle: gum acacia 94 % of control

N[C@@H](Cc1ccc(O)c(O)c1)C(=O)O
inactive: dose: 25.0 mg/kg/injection, schedule: Q01DX009 (ip), vehicle: saline 101 % of control | [4] 94 % of control | [5] 87 % of control | dose: 50.0 mg/kg/injection, schedule: Q01DX009 (ip), vehicle: saline 100 % of control and 105 % of control | [6] 103 % of control and 105 % of control | [1] 94 % of control | dose: 100.0 mg/kg/injection, schedule: Q01DX009 (ip), vehicle: saline 92 % of control and 97 % of control | [7] 110 % of control | [2] 113 % of control | dose: 200.0 mg/kg/injection, schedule: Q01DX009 (ip), vehicle: saline 97 % of control and 105 % of control | [8] 98 % of control and 105 % of control | [3] 94 % of control | dose: 400.0 mg/kg/injection, schedule: Q01DX009 (ip), vehicle: saline 108 % of control and 112 % of control | [9] 94 % of control and 97 % of control

C=C(C)COc1c(C)c(C)c(OS(=O)(=O)c2ccc(Br)cc2)c(C)c1C
inactive: [10] 97 % of control | [11] 89 % of control | [12] 100 % of control

C=CCc1ccc(OC(=O)Nc2ccccc2C)c(OC)c1
inactive: [13] 96 % of control | [14] 95 % of control

O=C(O)CSC(SCC(=O)O)c1ccc(Cl)cc1Cl
inactive: [15] 94 % of control | [16] 98 % of control | [17] 119 % of control

COC(=O)CC(N)C(=O)OC (configuration not stated)
inactive: [1] 89 % of control | [2] 86 % of control | [3] 90 % of control

c1cc[c]([Ge]([O][Ge]([c]2ccccc2)([c]2ccccc2)[c]2ccccc2)([c]2ccccc2)[c]2ccccc2)cc1
inactive: dose: 50.0 mg/kg/injection, schedule: Q01DX009 (ip), vehicle: saline with Tween-80 94 % of control | [18] 96 % of control | [19] 96 % of control

CCS(=O)CC
inactive: [15] 106 % of control | [7] 101 % of control and 108 % of control | [16] 89 % of control | [8] 94 % of control and 97 % of control | [17] 95 % of control | [9] 101 % of control and 104 % of control

CCOC(=O)c1cc(Br)c(O)c(Br)c1
inactive: dose: 50.0 mg/kg/injection, schedule: Q01DX009 (ip), vehicle: Klucel (hydroxypropylcellulose) (HPC) 95 % of control | [13] 91 % of control

CN1CCN=C1c1ccc(NC(=O)c2ccc(C(=O)Nc3ccc(C4=NCCN4C)cc3)c([N+](=O)[O-])c2)cc1
inactive: dose: 1.5 mg/kg/injection, schedule: Q01DX Z (ip), vehicle: carboxymethylcellulose (CMC) 96 % of control | dose: 3.0 mg/kg/injection, schedule: Q01DX Z (ip), vehicle: carboxymethylcellulose (CMC) 101 % of control | dose: 6.0 mg/kg/injection, schedule: Q01DX Z (ip), vehicle: carboxymethylcellulose (CMC) 90 % of control

Cc1ccc(-n2c(=O)[nH]c3c(c2=O)C(c2ccc(Cl)cc2)C(C)(C)O3)cc1 (configuration not stated)
inactive: dose: 12.5 mg/kg/injection, schedule: Q01DX001 (ip), vehicle: saline 97 % of control | dose: 12.5 mg/kg/injection, schedule: Q04DX003 (ip), vehicle: saline 107 % of control | [4] 101 % of control | [5] 96 % of control | [6] 90 % of control | dose: 75.0 mg/kg/injection, schedule: Q04DX003 (ip), vehicle: saline 97 % of control | dose: 113.0 mg/kg/injection, schedule: Q04DX003 (ip), vehicle: saline 94 % of control | dose: 169.0 mg/kg/injection, schedule: Q04DX003 (ip), vehicle: saline 95 % of control

CCC1=C(c2ccc(OC)cc2)C(C)Oc2cc(OC(C)=O)ccc21 (configuration not stated)
inactive: dose: 50.0 mg/kg/injection, schedule: Q01DX001 (sc), vehicle: steriod suspending solution 101 % of control | dose: 100.0 mg/kg/injection, schedule: Q01DX001 (sc), vehicle: steriod suspending solution 101 % of control | dose: 200.0 mg/kg/injection, schedule: Q01DX001 (sc), vehicle: steriod suspending solution 97 % of control | dose: 400.0 mg/kg/injection, schedule: Q01DX001 (sc), vehicle: steriod suspending solution 103 % of control

Cc1ccc(S(=O)(=O)OCC2OCOC2C2OCOC2C)cc1 (configuration not stated)
inactive: dose: 100.0 mg/kg/injection, schedule: Q01DX001 (ip), vehicle: saline with Tween-80 104 % of control | dose: 200.0 mg/kg/injection, schedule: Q01DX001 (ip), vehicle: saline with Tween-80 93 % of control | dose: 400.0 mg/kg/injection, schedule: Q01DX001 (ip), vehicle: saline with Tween-80 97 % of control

CCOc1ccc(/C=C2\N=C(c3ccc([N+](=O)[O-])cc3)OC2=O)cc1
inactive: [13] 97 % of control | [14] 87 % of control | dose: 400.0 mg/kg/injection, schedule: Q01DX009 (ip), vehicle: Klucel (hydroxypropylcellulose) (HPC) 94 % of control

O=CNC1(CO)CCCCC1
inactive: dose: 75.0 mg/kg/injection, schedule: Q01DX001 (ip), vehicle: saline 105 % of control | dose: 150.0 mg/kg/injection, schedule: Q01DX001 (ip), vehicle: saline 102 % of control | dose: 300.0 mg/kg/injection, schedule: Q01DX001 (ip), vehicle: saline 96 % of control

Cc1cc(N(C)C)ccc1N=Nc1ccccc1
inactive: dose: 50.0 mg/kg/injection, schedule: Q01DX001 (ip), vehicle: carboxymethylcellulose (CMC) 102 % of control | dose: 100.0 mg/kg/injection, schedule: Q01DX001 (ip), vehicle: carboxymethylcellulose (CMC) 102 % of control | dose: 200.0 mg/kg/injection, schedule: Q01DX001 (ip), vehicle: carboxymethylcellulose (CMC) 107 % of control | dose: 400.0 mg/kg/injection, schedule: Q01DX001 (ip), vehicle: carboxymethylcellulose (CMC) 96 % of control

Cc1cccc(C)[n+]1CC(=O)CCCCCCC(=O)C[n+]1c(C)cccc1C
inactive: dose: 0.25 mg/kg/injection, schedule: Q04DX003 (ip), vehicle: saline 98 % of control | dose: 0.5 mg/kg/injection, schedule: Q04DX003 (ip), vehicle: saline 105 % of control | dose: 1.0 mg/kg/injection, schedule: Q04DX003 (ip), vehicle: saline 101 % of control

CN(C)S(=O)(=O)ON1C(=O)c2ccccc2C1=O
inactive: dose: 75.0 mg/kg/injection, schedule: Q01DX001 (ip), vehicle: other 103 % of control | dose: 150.0 mg/kg/injection, schedule: Q01DX001 (ip), vehicle: other 108 % of control | dose: 300.0 mg/kg/injection, schedule: Q01DX001 (ip), vehicle: other 94 % of control

O=C(CBr)CC(O)(C(F)(F)F)C(F)(F)F
inactive: dose: 3.0 mg/kg/injection, schedule: Q01DX009 (ip), vehicle: saline 93 % of control | dose: 6.0 mg/kg/injection, schedule: Q01DX009 (ip), vehicle: saline 103 % of control | dose: 12.0 mg/kg/injection, schedule: Q01DX009 (ip), vehicle: saline 103 % of control

CC(C)C(CN)(CCCN1CCOCC1)c1cccc2ccccc12 (configuration not stated)
inactive: [18] 94 % of control | [19] 89 % of control

Nc1nc(SCc2ccccc2)c(N)c(=S)[nH]1
inactive: [10] 95 % of control | [11] 90 % of control | [12] 93 % of control

From PubChem BioAssay AID248 (DTP/NCI, 2004)
